This is an account of results in patent publication US9073918B2, “Pyrazolo[4,3-b]pyridine-7-amine inhibitors of ALK5” (Takeda Pharmaceutical Company Limited, priority 2010, dated 2015).

One test deals with T1, TGF-β R1 ALK5 (Homo sapiens, UniProt P36897).
T1 construct: purchased Invitrogen PV5837
T1 sequence (P36897 34-503): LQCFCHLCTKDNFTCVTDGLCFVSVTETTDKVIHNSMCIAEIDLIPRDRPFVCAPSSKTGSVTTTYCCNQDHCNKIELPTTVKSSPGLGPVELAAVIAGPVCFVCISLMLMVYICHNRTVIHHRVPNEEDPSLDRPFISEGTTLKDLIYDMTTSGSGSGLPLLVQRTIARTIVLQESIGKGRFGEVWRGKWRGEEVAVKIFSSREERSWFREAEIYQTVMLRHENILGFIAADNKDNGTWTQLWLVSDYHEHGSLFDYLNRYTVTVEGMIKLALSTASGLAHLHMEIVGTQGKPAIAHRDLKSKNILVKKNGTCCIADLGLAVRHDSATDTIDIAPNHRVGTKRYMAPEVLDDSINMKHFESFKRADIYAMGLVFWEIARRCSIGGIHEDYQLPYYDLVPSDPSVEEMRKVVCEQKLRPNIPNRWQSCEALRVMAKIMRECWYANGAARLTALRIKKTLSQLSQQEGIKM
In words: In vitro inhibition of ALK5 (LanthaScreen activity assay, TR-FRET). In kind it is biochemical.

For another test, the target named is T2, cellular TGF-β R1 ALK5 (Homo sapiens, UniProt P36897).
T2 construct: host or cells: CellSensor SBE-bla HEK 293T
T2 sequence (P36897 34-503): T1 sequence (P36897 34-503)
The test can be described thus: Cellular inhibition of ALK5 (CellSensor SBE-bla HEK 293T beta-lactamase reporter). In kind it is cell-based. The following applies: cellular inhibition of ALK5, SBE-bla HEK 293T cells, TGFb-1 stimulated 5 hours; average where measured in multiple experiments. Summed up: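 pIC50 derives from non-linear fitting of percent inhibition of the 460/530 nm CCF4-AM emission ratio, relative to DMSO+TGF-β wells. HEK 293T SBE-bla cells received compound (0.5% DMSO) for 1 h, TGFb-1 (100 ng/mL stock) for 5 h at 37 °C, then substrate 2 h at RT.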

As to `CCn1ncc2nccc(Nc3cc(-c4nc(C)ccc4F)ncc3C)c21` [Example 134, 1-ethyl-N-(3′-fluoro-5,6′-dimethyl-2,2′-bipyridin-4-yl)-1H-pyrazolo[4,3-b]pyridin-7-amine], the results for the IC50 on TGF-β R1 ALK5 and on cellular TGF-β R1 ALK5 were 2 nM and 50.1 nM, respectively.
On the same counts, the results for `Cc1ccc(F)c(-c2cc(Nc3ccnc4cnn(CCC(C)(C)O)c34)ccn2)n1` [Example 135, 4-(7-(3′-fluoro-6′-methyl-2,2′-bipyridin-4-ylamino)-1H-pyrazolo[4,3-b]pyridin-1-yl)-2-methylbutan-2-ol] are 15.8 nM and 50.1 nM.
On the same counts, the results for `Cc1ccc(F)c(-c2cc(Nc3ccnc4cn([C@@H]5CCOC5)nc34)c(C)cn2)n1` [Example 136, (R)—N-(3′-fluoro-5,6′-dimethyl-2,2′-bipyridin-4-yl)-2-(tetrahydrofuran-3-yl)-2H-pyrazolo[4,3-b]pyridin-7-amine] are 6.31 nM and 79.4 nM.
On the same counts, the results for `Cc1ccc(F)c(-c2cc(Nc3ccnc4cnn([C@@H]5CCOC5)c34)c(C)cn2)n1` [Example 137, (R)—N-(3′-fluoro-5,6′-dimethyl-2,2′-bipyridin-4-yl)-1-(tetrahydrofuran-3-yl)-1H-pyrazolo[4,3-b]pyridin-7-amine] are 20 nM and 79.4 nM.
As for `CCn1cc2ncc(F)c(Nc3cc(-c4nc(C)ccc4F)ncc3C)c2n1` [Example 138, 2-ethyl-6-fluoro-N-(3′-fluoro-5,6′-dimethyl-2,2′-bipyridin-4-yl)-2H-pyrazolo[4,3-b]pyridin-7-amine], the IC50 on TGF-β R1 ALK5 is 7.94 nM; at cellular TGF-β R1 ALK5, 15.8 nM.
On the same counts, the results for `CCn1ncc2ncc(F)c(Nc3cc(-c4nc(C)ccc4F)ncc3C)c21` [Example 139, 1-ethyl-6-fluoro-N-(3′-fluoro-5,6′-dimethyl-2,2′-bipyridin-4-yl)-1H-pyrazolo[4,3-b]pyridin-7-amine] are 25.1 nM and 126 nM.
On the same counts, the results for `Cc1ccc(F)c(-c2cc(Nc3ccnc4cn([C@H]5CCOC5)nc34)c(C)cn2)n1` [Example 140, (S)—N-(3′-fluoro-5,6′-dimethyl-2,2′-bipyridin-4-yl)-2-(tetrahydrofuran-3-yl)-2H-pyrazolo[4,3-b]pyridin-7-amine] are 7.94 nM and 50.1 nM.
For `Cc1ccc(F)c(-c2cc(Nc3ccnc4cnn([C@H]5CCOC5)c34)c(C)cn2)n1` [Example 141, (S)—N-(3′-fluoro-5,6′-dimethyl-2,2′-bipyridin-4-yl)-1-(tetrahydrofuran-3-yl)-1H-pyrazolo[4,3-b]pyridin-7-amine] the same measures were 25.1 nM and 158 nM.
Regarding `Cc1cnc(-c2cc(F)ccc2F)cc1Nc1ccnc2cn(CCC(C)(C)O)nc12` [Example 142, 4-(7-(2-(2,5-difluorophenyl)-5-methylpyridin-4-ylamino)-2H-pyrazolo[4,3-b]pyridin-2-yl)-2-methylbutan-2-ol], the IC50 is 25.1 nM on TGF-β R1 ALK5 and 158 nM on cellular TGF-β R1 ALK5.
For `Cc1cnc(-c2cc(F)ccc2F)cc1Nc1ccnc2cn(CC(C)O)nc12` (stereo not shown) [Example 143, 1-(7-(2-(2,5-difluorophenyl)-5-methylpyridin-4-ylamino)-2H-pyrazolo[4,3-b]pyridin-2-yl)propan-2-ol] the same measures were 20 nM and 126 nM.
For `Cc1cnc(-c2cc(F)ccc2F)cc1Nc1ccnc2cnn(CC(C)O)c12` (stereo not shown) [Example 144, 1-(7-(2-(2,5-difluorophenyl)-5-methylpyridin-4-ylamino)-1H-pyrazolo[4,3-b]pyridin-1-yl)propan-2-ol] the same measures were 2.51 nM and 20 nM.
For `CNC(=O)Cn1ncc2nccc(Nc3cc(-c4nc(C)ccc4F)ncc3C)c21` [Example 145, 2-(7-(3′-fluoro-5,6′-dimethyl-2,2′-bipyridin-4-ylamino)-1H-pyrazolo[4,3-b]pyridin-1-yl)-N-methylacetamide] the same measures were 15.8 nM and 126 nM.
Take `CNC(=O)Cn1cc2nccc(Nc3cc(-c4nc(C)ccc4F)ncc3C)c2n1` [Example 146, 2-(7-(3′-fluoro-5,6′-dimethyl-2,2′-bipyridin-4-ylamino)-2H-pyrazolo[4,3-b]pyridin-2-yl)-N-methylacetamide]: the figures for the IC50 against TGF-β R1 ALK5 and on cellular TGF-β R1 ALK5 were 31.6 nM and 501 nM, respectively.
On the same counts, the results for `CNC(=O)Cn1cc2ncc(F)c(Nc3cc(-c4nc(C)ccc4F)ncc3C)c2n1` [Example 147, 2-(6-fluoro-7-(3′-fluoro-5,6′-dimethyl-2,2′-bipyridin-4-ylamino)-2H-pyrazolo[4,3-b]pyridin-2-yl)-N-methylacetamide] are 31.6 nM and 200 nM.
For `CNC(=O)Cn1ncc2ncc(F)c(Nc3cc(-c4nc(C)ccc4F)ncc3C)c21` [Example 148, 2-(6-fluoro-7-(3′-fluoro-5,6′-dimethyl-2,2′-bipyridin-4-ylamino)-1H-pyrazolo[4,3-b]pyridin-1-yl)-N-methylacetamide] the same measures were 200 nM and 1000 nM.
On the same counts, the results for `Cc1ccc(F)c(-c2cc(Nc3ccnc4cn(C[C@H](C)O)nc34)c(C)cn2)n1` [Example 149, (S)-1-(7-(3′-fluoro-5,6′-dimethyl-2,2′-bipyridin-4-ylamino)-2H-pyrazolo[4,3-b]pyridin-2-yl)propan-2-ol] are 6.31 nM and 79.4 nM.
Take `Cc1ccc(F)c(-c2cc(Nc3ccnc4cn(C[C@@H](C)O)nc34)c(C)cn2)n1` [Example 150, (R)-1-(7-(3′-fluoro-5,6′-dimethyl-2,2′-bipyridin-4-ylamino)-2H-pyrazolo[4,3-b]pyridin-2-yl)propan-2-ol]: the IC50 was 7.94 nM on TGF-β R1 ALK5 and 158 nM against cellular TGF-β R1 ALK5.
As for `Cc1ccc(F)c(-c2cc(Nc3ccnc4cnn(C[C@@H](C)O)c34)c(C)cn2)n1` [Example 151, (R)-1-(7-(3′-fluoro-5,6′-dimethyl-2,2′-bipyridin-4-ylamino)-1H-pyrazolo[4,3-b]pyridin-1-yl)propan-2-ol], the values for the IC50 at TGF-β R1 ALK5 and at cellular TGF-β R1 ALK5 were 6.31 nM and 63.1 nM, respectively.
For `Cc1ccc(F)c(-c2cc(Nc3ccnc4cnn(C[C@H](C)O)c34)c(C)cn2)n1` [Example 152, (S)-1-(7-(3′-fluoro-5,6′-dimethyl-2,2′-bipyridin-4-ylamino)-1H-pyrazolo[4,3-b]pyridin-1-yl)propan-2-ol] the same measures were 7.94 nM and 100 nM.
As to `CCNC(=O)Cn1ncc2nccc(Nc3cc(-c4nc(C)ccc4F)ncc3C)c21` [Example 153, N-ethyl-2-(7-(3′-fluoro-5,6′-dimethyl-2,2′-bipyridin-4-ylamino)-1H-pyrazolo[4,3-b]pyridin-1-yl)acetamide], the figures for the IC50 against TGF-β R1 ALK5 and at cellular TGF-β R1 ALK5 were 7.94 nM and 79.4 nM, respectively.
With `CCNC(=O)Cn1cc2nccc(Nc3cc(-c4nc(C)ccc4F)ncc3C)c2n1` [Example 154, N-ethyl-2-(7-(3′-fluoro-5,6′-dimethyl-2,2′-bipyridin-4-ylamino)-2H-pyrazolo[4,3-b]pyridin-2-yl)acetamide], the IC50 on TGF-β R1 ALK5 was 31.6 nM; against cellular TGF-β R1 ALK5, 1580 nM.
On the same counts, the results for `CCNC(=O)Cn1ncc2nccc(Nc3cc(-c4cc(F)ccc4F)ncc3C)c21` [Example 155, 2-(7-(2-(2,5-difluorophenyl)-5-methylpyridin-4-ylamino)-1H-pyrazolo[4,3-b]pyridin-1-yl)-N-ethylacetamide] are 25.1 nM and 794 nM.
On the same counts, the results for `CCNC(=O)Cn1cc2nccc(Nc3cc(-c4cc(F)ccc4F)ncc3C)c2n1` [Example 156, 2-(7-(2-(2,5-difluorophenyl)-5-methylpyridin-4-ylamino)-2H-pyrazolo[4,3-b]pyridin-2-yl)-N-ethylacetamide] are 3.16 nM and 126 nM.
Turning to `Cc1ccc(F)c(-c2cc(Nc3ccnc4cnn(C5CCS(=O)(=O)C5)c34)c(C)cn2)n1` (stereo not shown) [Example 157, N-[1-(1,1-dioxidotetrahydrothiophen-3-yl)-1H-pyrazolo[4,3-b]pyridin-7-yl]-3′-fluoro-5,6′-dimethyl-2,2′-bipyridin-4-amine], the 50% inhibitory concentration (IC50) against TGF-β R1 ALK5 is 25.1 nM; on cellular TGF-β R1 ALK5, 398 nM.
On the same counts, the results for `CNC(=O)Cn1cc2nccc(Nc3cc(-c4cc(F)ccc4F)ncc3C)c2n1` [Example 158, 2-(7-(2-(2,5-difluorophenyl)-5-methylpyridin-4-ylamino)-2H-pyrazolo[4,3-b]pyridin-2-yl)-N-methylacetamide] are 6.31 nM and 126 nM.
As for “N-(2-(5-chloro-2-fluorophenyl)pyridin-4-yl)-2-(2-methoxyethyl)-2H-pyrazolo[4,3-b]pyridin-7-amine and N-(2-(5-chloro-2-fluorophenyl)pyridin-4-yl)-1-(2-methoxyethyl)-2H-pyrazolo[4,3-b]pyridin-7-amine [Example 35]”, the pIC50 against TGF-β R1 ALK5 (in vitro inhibition of ALK5, 15 nM ALK5, 2 μM ATP, Fluorescein-SMAD3 peptide, 90 minutes at room temperature, average where measured in multiple experiments) amounted to 6.6; against cellular TGF-β R1 ALK5, 6.6.
